Assay results: PMC9735679, “Identification and Evolution of a Natural Tetr Protein Based on Molecular Docking and Development of a Fluorescence Polari-Zation Assay for Multi-Detection of 10 Tetracyclines in Milk” (Foods, 2022)
Like-named read-outs stand apart in the source and are kept apart here.

Experiments:
Format in all cases: binding
TetR mutant [1] = molecular target: T1, TetR mutant (Escherichia coli, UniProt P04483, H139W); experiment: Fluorescence polarization assay (FPA) with TetR mutant; details: for FP values at 0 and 100 ng/mL / LOD (limit of detection, IC10) / inhibition ratio (1-FP/FP0): TetR mutant; for FP values at 0 and 100 ng/mL: either tracer (FITC-MC or FA-MC), specificity test; for LOD (limit of detection, IC10): FPA, FA-MC tracer, drugs diluted with blank milk extract; for inhibition ratio (1-FP/FP0): 100 ng/mL
T1 construct: made in house; host or cells: E. coli Rosetta-gami(BL21), vector pET28a
Procedure: (§1) The FPA method was performed as follows. A total of 50 μL mutant, 50 μL TCs solution, and 50 μL fluorescent tracer were added into the wells of a 96-well microplate (in triplicate) and incubated for 2 min. Then the fluorescence polarization (FP) value of each well was recorded (λex 485 nm, λem 528 nm, emission cutoff of 515 nm). During the experiments, the two fluorescent tracers were compared, and several other parameters were optimized, including tracer concentration, mutant concentration, Mg^2+ concentration and incubation time. The 10 TCs and several other classes of drugs were all tested by this method. The competitive curve was developed by plotting the FP/FP0 values (the fluorescence polarization value at each concentration divided by that of zero concentration) versus the concentrations of the TCs (log C). Based on the developed competitive curve, the half of inhibition (IC50) and the limit of detection (IC10) for each drug were determined, respectively.
For obtaining the best method performance, several parameters were optimized with DMC as the representative. Firstly, the concentrations of FA-MC and the mutant were optimized. During the experiments, the FA-MC and the mutant at different concentrations were mixed with the same concentration of DMC to perform the assay. […] Secondly, the concentration of Mg^2+ (MgCl2) was optimized. […] Thirdly, the competition time was optimized.
(§2) This is the first study reporting an FPA method for the determination of TCs. Under the optimal conditions, the 10 TCs were diluted with the extracts of a blank milk sample to be analyzed, respectively. […] During the experiments, the natural TetR was also used to perform the FPA method as described above.

TetR mutant [2] = molecular target: T1, TetR mutant; experiment: Surface plasmon resonance affinity, TetR mutant; details: SPR; for Kd: KD (equilibrium dissociation constant, Kd/Ka)
Procedure: (§3) After the experiments, the association constant (Ka), the dissociation constant (Kd), and the equilibrium dissociation constant (KD = Kd/Ka) for each drug were calculated. For convenience in comparing their affinities, the absolute affinity constant (KA = […]) for each drug was also calculated.
The primers were designed according to the virtual model: mutant for, […]; mutant rev, […]. The amplified gene was inserted into pET28a to construct the express vector that was transformed into E. coli Rosetta-gami(BL21) to express the mutant, and these procedures were according to our recent report. The obtained TetR mutant was characterized by using SDS-PAGE and western blotting according to our recent report, and its recognition ability for the 10 TCs was evaluated by the following FPA method. Furthermore, its recognition mechanisms and affinities for the 10 TCs were also determined as described above.

natural TetR [3] = molecular target: T2, natural TetR (Escherichia coli, UniProt P04483); experiment: Fluorescence polarization assay (FPA) with natural TetR
T2 construct: made in house
Procedure: as §1, §2

natural TetR [4] = molecular target: T2, natural TetR; experiment: Surface plasmon resonance affinity, natural TetR; details: for Kd: KD (equilibrium dissociation constant, Kd/Ka); for Kd / koff (dissociation rate constant): SPR
Procedure: as §3

[5] = read-out: Ka (association constant), TetR without Mg2+, SPR
[6] = read-out: Ka (association constant), TetR+Mg2+, SPR

SMILES	FP values at 0 and 100 ng/mL (TetR mutant [1])	IC50 (TetR mutant [1])	LOD (limit of detection, IC10) (TetR mutant [1])	Kd (TetR mutant [2]; TetR mutant without Mg2+)	Kd (TetR mutant [2]; TetR mutant+Mg2+)	Dissociation rate constant (koff) (TetR mutant [2]; TetR mutant without Mg2+)	Dissociation rate constant (koff) (TetR mutant [2]; TetR mutant+Mg2+)	IC50 (natural TetR [3])	Kd (natural TetR [4]; TetR without Mg2+)	Kd (natural TetR [4]; TetR+Mg2+)	koff (dissociation rate constant) (natural TetR [4]; TetR without Mg2+)	koff (dissociation rate constant) (natural TetR [4]; TetR+Mg2+)	kon (natural TetR [4]; [5])	kon (natural TetR [4]; [6])	inhibition ratio (1-FP/FP0) (TetR mutant [1]; tracer FA-MC)	inhibition ratio (1-FP/FP0) (TetR mutant [1]; tracer FITC-MC)
CN(C)CCCN1c2ccccc2Sc2ccc(Cl)cc21 [chlorpromazine]	comparably high	–	–	–	–	–	–	–	–	–	–	–	–	–	–	–
C=C1c2cccc(O)c2C(=O)C2=C(O)[C@]3(O)C(=O)C(C(N)=O)=C(O)[C@@H](N(C)C)[C@@H]3[C@@H](O)[C@H]12 [MTC, Methacycline]	–	110 nM	1.5 ng/mL	3.97 nM	0.3 nM	5.71e-06 s⁻¹	5.59e-06 s⁻¹	114 nM	111 nM	122 nM	0.00016 s⁻¹	0.000162 s⁻¹	1440 M⁻¹ s⁻¹	1330 M⁻¹ s⁻¹	–	–
CN1C(=O)CN=C(c2ccccc2)c2cc(Cl)ccc21 [diazepam]	comparably high	–	–	–	–	–	–	–	–	–	–	–	–	–	–	–
CN(C)[C@@H]1C(O)=C(C(N)=O)C(=O)[C@@]2(O)C(O)=C3C(=O)c4c(O)cccc4[C@@](C)(O)[C@H]3C[C@@H]12 [TC, tetracycline]	–	85.5 nM	1.3 ng/mL	768 nM	62.1 nM	0.000156 s⁻¹	0.000121 s⁻¹	146 nM	7690 nM	4790 nM	0.00156 s⁻¹	0.00133 s⁻¹	203 M⁻¹ s⁻¹	278 M⁻¹ s⁻¹	–	–
CN(C)[C@@H]1C(O)=C(C(N)=O)C(=O)[C@@]2(O)C(O)=C3C(=O)c4c(O)ccc(Cl)c4[C@@H](O)[C@H]3C[C@@H]12 [DMC, demeclocycline]	–	33.3 nM	0.4 ng/mL	3.1 nM	0.0928 nM	1.72e-05 s⁻¹	4.7e-06 s⁻¹	66.7 nM	74.4 nM	27.6 nM	0.000206 s⁻¹	0.000127 s⁻¹	2770 M⁻¹ s⁻¹	4610 M⁻¹ s⁻¹	69%	52%
CN(C)[C@@H]1C(O)=C(C(N)=O)C(=O)[C@@]2(O)C(O)=C3C(=O)c4c(O)cccc4[C@@](C)(O)[C@H]3[C@H](O)[C@@H]12 [OTC, oxytetracycline]	–	78.2 nM	0.8 ng/mL	1.76 nM	1.48 nM	7.96e-05 s⁻¹	0.00012 s⁻¹	130 nM	965 nM	409 nM	0.00199 s⁻¹	0.00144 s⁻¹	2060 M⁻¹ s⁻¹	3520 M⁻¹ s⁻¹	–	–
CN(C)[C@@H]1C(O)=C(C(N)=O)C(=O)[C@@]2(O)C(O)=C3C(=O)c4c(O)ccc(Cl)c4[C@@](C)(O)[C@H]3C[C@@H]12 [CTC, chlortetracycline]	–	115 nM	1.4 ng/mL	16.3 nM	9.11 nM	0.000822 s⁻¹	0.000404 s⁻¹	167 nM	4990 nM	2560 nM	0.0148 s⁻¹	0.0113 s⁻¹	2970 M⁻¹ s⁻¹	4430 M⁻¹ s⁻¹	–	–
CN(C)[C@@H]1C(O)=C(C(N)=O)C(=O)[C@@]2(O)C(O)=C3C(=O)c4c(O)cccc4C[C@H]3C[C@@H]12 [SC, Sancycline]	–	70 nM	0.7 ng/mL	0.593 nM	0.417 nM	6.35e-06 s⁻¹	5.79e-06 s⁻¹	106 nM	59.5 nM	70.2 nM	0.000127 s⁻¹	0.000162 s⁻¹	2140 M⁻¹ s⁻¹	2310 M⁻¹ s⁻¹	–	–
CN(C)[C@@H]1C(O)=C(C(=O)NCNCCCC[C@H](N)C(=O)O)C(=O)[C@@]2(O)C(O)=C3C(=O)c4c(O)cccc4[C@@](C)(O)[C@H]3C[C@@H]12 [LMC, Lymecycline]	–	75.8 nM	1.0 ng/mL	2.54 nM	1.09 nM	7.25e-05 s⁻¹	0.00011 s⁻¹	92.3 nM	366 nM	263 nM	0.00116 s⁻¹	0.00121 s⁻¹	3170 M⁻¹ s⁻¹	4590 M⁻¹ s⁻¹	–	–
CN(C)c1cc(NC(=O)CNC(C)(C)C)c(O)c2c1C[C@H]1C[C@H]3[C@H](N(C)C)C(O)=C(C(N)=O)C(=O)[C@@]3(O)C(O)=C1C2=O [TIC, tigecycline]	–	27.3 nM	0.4 ng/mL	0.104 nM	0.104 nM	9.45e-07 s⁻¹	1.78e-06 s⁻¹	52.6 nM	10.4 nM	28.2 nM	1.04e-05 s⁻¹	1.78e-05 s⁻¹	1010 M⁻¹ s⁻¹	633 M⁻¹ s⁻¹	–	–
O=C(O)c1cn(C2CC2)c2cc(N3CCNCC3)c(F)cc2c1=O [ciprofloxacin]	comparably high	–	–	–	–	–	–	–	–	–	–	–	–	–	–	–
CN(C)c1ccc(O)c2c1C[C@H]1C[C@H]3[C@H](N(C)C)C(O)=C(C(N)=O)C(=O)[C@@]3(O)C(O)=C1C2=O [MC, minocycline]	–	52 nM	0.5 ng/mL	3.1 nM	0.191 nM	4.23e-05 s⁻¹	3.19e-05 s⁻¹	94.9 nM	112 nM	70.3 nM	0.000507 s⁻¹	0.000511 s⁻¹	4540 M⁻¹ s⁻¹	7270 M⁻¹ s⁻¹	–	–
C[C@H]1c2cccc(O)c2C(=O)C2=C(O)[C@]3(O)C(=O)C(C(N)=O)=C(O)[C@@H](N(C)C)[C@@H]3[C@@H](O)[C@@H]21 [DC, doxycycline]	–	68.2 nM	1.0 ng/mL	0.249 nM	0.641 nM	6.65e-05 s⁻¹	0.000113 s⁻¹	82.4 nM	21.1 nM	41.1 nM	0.00113 s⁻¹	0.0018 s⁻¹	53400 M⁻¹ s⁻¹	43900 M⁻¹ s⁻¹	–	–
[H]/N=C(/N)N[C@H]1[C@H](O)[C@@H](O)[C@H](O[C@@H]2O[C@@H](C)[C@](O)(C=O)[C@H]2O[C@@H]2O[C@@H](CO)[C@H](O)[C@@H](O)[C@@H]2NC)[C@@H](N/C(N)=N\[H])[C@@H]1O [streptomycin]	comparably high	–	–	–	–	–	–	–	–	–	–	–	–	–	–	–
